In ChEMBL document CHEMBL5352456, “Isocyanides in med chem: A scaffold hopping approach for the identification of novel 4-isocyanophenylamides as potent antibacterial agents against methicillin-resistant Staphylococcusaureus” (Eur J Med Chem, 2023):
Converted amounts (≈) assume the structure as drawn. The source made the active and inactive calls. The rule behind the calls is not given here.

How the values were obtained:
Escherichia coli = assay: Antibacterial activity against Escherichia coli ATCC 25922 assessed as inhibition of bacterial growth measured for 16 to 20 hrs by microdilution assay; format: functional; details: time 16-20 hrs
Staphylococcus aureus [1] = assay: Antibacterial activity against Staphylococcus aureus ATCC 29213 assessed as reduction in microbial growth measured for 16 to 20 hrs by microdilution assay; format: functional; details: time 16-20 hrs
Klebsiella pneumoniae = assay: Antibacterial activity against Klebsiella pneumoniae ATCC 700603 assessed as inhibition of bacterial growth measured for 16 to 20 hrs by microdilution assay; format: functional; details: time 16-20 hrs
Staphylococcus aureus [2] = assay: Antibacterial activity against Staphylococcus aureus ATCC 25923 assessed as reduction in microbial growth measured for 16 to 20 hrs by microdilution assay; format: functional; details: time 16-20 hrs
[3] = test system: Staphylococcus epidermidis; assay: Antibacterial activity against Staphylococcus epidermidis ATCC 49134 assessed as reduction in microbial growth measured for 16 to 20 hrs by microdilution assay; format: functional; details: time 16-20 hrs
[4] = test system: Staphylococcus epidermidis; assay: Antibacterial activity against Staphylococcus epidermidis ATCC 12228 assessed as reduction in microbial growth measured for 16 to 20 hrs by microdilution assay; format: functional; details: time 16-20 hrs
Pseudomonas aeruginosa [5] = assay: Antibacterial activity against Pseudomonas aeruginosa ATCC 10145 assessed as inhibition of bacterial growth measured for 16 to 20 hrs by microdilution assay; format: functional; details: time 16-20 hrs
Staphylococcus aureus [6] = assay: Antibacterial activity against Staphylococcus aureus ATCC 6538 assessed as reduction in microbial growth measured for 16 to 20 hrs by microdilution assay; format: functional; details: time 16-20 hrs
Staphylococcus aureus [7] = assay: Antibacterial activity against methicillin-resistant Staphylococcus aureus ATCC 43300 assessed as reduction in microbial growth measured for 16 to 20 hrs by microdilution assay; format: functional; details: time 16-20 hrs
[8] = test system: Staphylococcus epidermidis; assay: Antibacterial activity against Staphylococcus epidermidis ATCC 35984 assessed as reduction in microbial growth measured for 16 to 20 hrs by microdilution assay; format: functional; details: time 16-20 hrs
Staphylococcus aureus [9] = assay: Antibacterial activity against methicillin-resistant Staphylococcus aureus ATCC 33592 assessed as reduction in microbial growth measured for 16 to 20 hrs by microdilution assay; format: functional; details: time 16-20 hrs
[10] = Metabolic stability in rat liver microsome assessed as parent compound remaining at 50 uM incubated for 1 hr in presence of NADPH regenerating system and GSH by LC-UV analysis; format: ADME; details: liver microsomes, read-out: Stability
[11] = Metabolic stability in human plasma assessed as parent compound remaining at 50 uM incubated for 60 mins by LC-UV analysis; format: ADME, cell-free; details: read-out: Stability
Staphylococcus aureus [12] = assay: Antibacterial activity against methicillin-resistant Staphylococcus aureus ATCC 43300 assessed as reduction in microbial growth by microdilution assay; format: functional
Staphylococcus aureus [13] = assay: Anti-biofilm activity in Staphylococcus aureus ATCC 6538 assessed as inhibition of biofilm formation upto 128 uM measured for 24 hrs by MTT assay; format: functional, organism-based
Acinetobacter baumannii = assay: Antibacterial activity against Acinetobacter baumannii assessed as inhibition of bacterial growth; format: functional
Pseudomonas aeruginosa [14] = assay: Antibacterial activity against Pseudomonas aeruginosa assessed as inhibition of bacterial growth; format: functional
Staphylococcus aureus [15] = assay: Bactericidal activity against methicillin-resistant Staphylococcus aureus ATCC 43300 measured for 24 hrs by time kill assay; format: functional, organism-based
HaCaT [16] = assay: Cytotoxicity against human HaCaT cells assessed as reduction in cell viability measured at 128 uM measured for 24 hrs by MTT assay; format: toxicity, cell-based
HaCaT [17] = assay: Cytotoxicity against human HaCaT cells assessed as reduction in cell viability measured at 64 to 128 uM measured for 24 hrs by MTT assay; format: toxicity, cell-based; details: dose 64-128 µM

Structure (SMILES) | MIC (Escherichia coli) [µM] | MIC (Staphylococcus aureus [1]) [µM] | MIC (Klebsiella pneumoniae) [µM] | MIC (Staphylococcus aureus [2]) [µM] | MIC [3] [µM] | MIC [4] [µM] | MIC (Pseudomonas aeruginosa [5]) [µM] | MIC (Staphylococcus aureus [6]) [µM] | MIC (Staphylococcus aureus [7]) [µM] | MIC [8] [µM] | MIC (Staphylococcus aureus [9]) [µM] | remaining at 1 h, 50 µM [10] [%] | remaining at 1 h, 50 µM [11] [%] | MIC (Staphylococcus aureus [12]) [µM] | Activity (Staphylococcus aureus [13]) | MIC (Acinetobacter baumannii) [µM] | MIC (Pseudomonas aeruginosa [14]) [µM] | Activity (Staphylococcus aureus [15]) | Activity (HaCaT [16]) [%] | Activity (HaCaT [17])
[C-]#[N+]c1ccc(NC(=O)Cc2cccc([N+](=O)[O-])c2)cc1 | ≥ 64 | 8 | ≥ 64 | 4 | 2 | 4 | ≥ 64 | 8 | 4 | 4 | 4 |  |  |  |  |  |  |  |  | 
[C-]#[N+]c1ccc(NC(=O)Cc2cccc(OC)c2)cc1 | ≥ 64 | 8 | ≥ 64 | 4 | 2 | 2 | ≥ 64 | 8 | 8 | 2 | 8 |  |  |  |  |  |  |  |  | 
[C-]#[N+]c1ccc(NC(=O)CCc2ccc(Br)cc2)cc1 | ≥ 64 | 8 | ≥ 64 | 8 | 2 | 2 | ≥ 64 | 8 | 8 | 2 | 8 |  |  |  |  |  |  |  |  | 
[C-]#[N+]c1ccc(NC(=O)CCc2ccccc2)cc1 | ≥ 64 | 8 | ≥ 64 | 4 | 2 | 2 | ≥ 64 | 8 | 8 | 1 | > 8 |  |  |  |  |  |  |  |  | 
[C-]#[N+]c1ccc(NC(=O)Cc2ccc([N+](=O)[O-])cc2)cc1 | ≥ 64 | 8 | ≥ 64 | 2 | 0.5 | 1 | ≥ 64 | 8 | 4 | 0.5 | 8 |  |  |  |  |  |  |  |  | 
[C-]#[N+]c1ccc(NC(=O)CCCCC)cc1 | ≥ 64 | > 8 | ≥ 64 | 8 | 1 | 1 | ≥ 64 | > 8 | > 8 | 1 | > 8 |  |  |  |  |  |  |  |  | 
[C-]#[N+]c1ccc(C(=O)NCc2ccccc2)cc1 | ≥ 64 | > 8 | ≥ 64 | > 8 |  |  | ≥ 64 | > 8 |  |  |  | 29 | 91 |  |  |  |  |  |  | 
[C-]#[N+]c1ccc(NC(=O)c2ccncc2)cc1 | ≥ 64 | > 8 | ≥ 64 | > 8 |  |  | ≥ 64 | > 8 |  |  |  | 29 | > 99 |  |  |  |  |  |  | 
[C-]#[N+]c1ccc(NC(=O)Cc2ccc(Cl)cc2)cc1 | ≥ 64 | 8 | ≥ 64 | 2 | 0.25 | 0.5 | ≥ 64 | 8 | 4 | 0.25 | 8 |  |  |  |  |  |  |  |  | 
O=C(O)c1cn(C2CC2)c2cc(N3CCNCC3)c(F)cc2c1=O [CIPROFLOXACIN] |  | 0.75 |  | 0.75 | 0.38 | 0.38 |  | 0.38 | 0.75 | 0.19 | 0.75 |  |  | 1 |  |  |  |  |  | 
[C-]#[N+]c1ccc(NC(=O)Cc2ccccc2)cc1 | ≥ 64 | > 8 | ≥ 64 | 8 | 1 | 2 | ≥ 64 | > 8 | > 8 | 1 | > 8 | 20 | > 99 |  |  |  |  |  |  | 
[C-]#[N+]c1ccc(NC(=O)CCC2CCCC2)cc1 | ≥ 64 | 8 | ≥ 64 | 4 | 2 | 1 | ≥ 64 | 8 | 8 | 1 | 8 |  |  |  |  |  |  |  |  | 
[C-]#[N+]c1ccc(NC(=O)Cc2ccc3c(c2)OCO3)cc1 | ≥ 64 | 8 | ≥ 64 | 4 | 1 | 1 | ≥ 64 | 8 | 8 | 1 | 8 |  |  |  |  |  |  |  |  | 
COc1cc(Cc2cnc(N)nc2N)cc(OC)c1OC |  |  |  |  |  |  |  |  |  |  |  |  |  |  | inactive |  |  |  |  | 
[C-]#[N+]c1ccc(NC(=O)Cc2ccc(OC)cc2)cc1 | ≥ 64 | 8 | ≥ 64 | 4 | 2 | 2 | ≥ 64 | 8 | 8 | 2 | 8 |  |  |  |  |  |  |  |  | 
[C-]#[N+]C(=C)[C@@](Cc1ccc(OC)cc1)([N+]#[C-])[C@@H]1C[C@@H](OC(=O)CO)CC[C@@H]1O |  |  |  |  |  |  |  |  |  |  |  |  |  |  |  | 0.52 (≈ 0.2 µg/mL) | 0.52 (≈ 0.2 µg/mL) |  |  | 
[C-]#[N+]c1ccc(/C=C/c2ccccc2)cc1 |  | 8 |  | 4 | 1 | 2 |  | 8 | 8 | 1 | 8 |  |  |  |  |  |  | Active | < 70 | Non-Toxic
[C-]#[N+]c1ccc(NC(=O)Cc2cccc(C#N)c2)cc1 | ≥ 64 | 8 | ≥ 64 | 4 | 2 | 2 | ≥ 64 | 8 | 8 | 2 | 8 |  |  |  |  |  |  |  |  | 
[C-]#[N+]c1ccc(NC(=O)CCc2ccc([N+](=O)[O-])cc2)cc1 | ≥ 64 | > 8 | ≥ 64 | 4 | 2 | 2 | ≥ 64 | > 8 | 8 | 1 | > 8 |  |  |  |  |  |  |  |  | 
